# The supplement of paper PMC10307832
# Legend:
# Assay in all cases: relative viability (nuclei count vs DMSO), 5 days (fraction); higher = more cells survive
# RERF-LC-KJ = test system: RERF-LC-KJ
# Procedure, shortened: (§1)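 Values are medians from duplicate plates. Each reflects relative viability, defined as the nuclei count of treated wells over that of vehicle wells. Lung cancer cell lines in 1536-well plates were pin-tool dosed one day after seeding with one drug alone or with a fixed anchor-drug dose plus five library-drug doses (not always all listed) in √10 steps, then fixed, stained and imaged at 4× after 5 days.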
# CAL-12T = test system: CAL-12T
# Procedure, shortened: as §1
# NCI-H1650 = test system: NCI-H1650
# Procedure, shortened: as §1
# ABC-1 = test system: ABC-1
# Procedure, shortened: as §1
# PC-3 [JPC-3] = test system: PC-3 [JPC-3]
# Procedure, shortened: as §1
# NCI-H1563 = test system: NCI-H1563
# Procedure, shortened: as §1
# NCI-H520 = test system: NCI-H520
# Procedure, shortened: as §1
# NCI-H2405 = test system: NCI-H2405
# Procedure, shortened: as §1
# NCI-H2228 = test system: NCI-H2228
# Procedure, shortened: as §1
# NCI-H322M = test system: NCI-H322M
# Procedure, shortened: as §1
# HCC-15 = test system: HCC-15
# Procedure, shortened: as §1
# NCI-H661 = test system: NCI-H661
# Procedure, shortened: as §1
# SW 1573 = test system: SW 1573
# Procedure, shortened: as §1
# EKVX = test system: EKVX
# Procedure, shortened: as §1
# COR-L23 = test system: COR-L23
# Procedure, shortened: as §1
# NCI-H1734 = test system: NCI-H1734
# Procedure, shortened: as §1
# HCC-827 = test system: HCC-827
# Procedure, shortened: as §1
# PC-14 = test system: PC-14
# Procedure, shortened: as §1
# NCI-H1437 = test system: NCI-H1437
# Procedure, shortened: as §1
# H3255 = test system: H3255
# Procedure, shortened: as §1
# NCI-H2342 = test system: NCI-H2342
# Procedure, shortened: as §1
# LK-2 = test system: LK-2
# Procedure, shortened: as §1
# NCI-H1355 = test system: NCI-H1355
# Procedure, shortened: as §1
structure (smiles),measurement,setting,value
O=C(O)c1ccc(-c2c[nH]c3ncc(-c4ccccc4)cc23)cc1C1CCCC1 + COc1cc2c(Oc3ccc(NC(=O)C4(C(=O)Nc5ccc(F)cc5)CC4)cc3F)ccnc2cc1OCCCN1CCOCC1 [Foretinib] (partner 0.25 µM),relative viability,RERF-LC-KJ; first compound 0.04 µM,0.86
same,relative viability,RERF-LC-KJ; first compound 0.1265 µM,0.865
same,relative viability,RERF-LC-KJ; first compound 0.4 µM,0.933
same,relative viability,RERF-LC-KJ; first compound 1.265 µM,0.837
same,relative viability,CAL-12T; first compound 0.04 µM,1.22
same,relative viability,CAL-12T; first compound 0.1265 µM,1.07
same,relative viability,CAL-12T; first compound 0.4 µM,1.13
same,relative viability,CAL-12T; first compound 1.265 µM,0.997
same,relative viability,NCI-H1650; first compound 0.04 µM,1.22
same,relative viability,NCI-H1650; first compound 0.1265 µM,1.57
same,relative viability,NCI-H1650; first compound 0.4 µM,1.6
same,relative viability,NCI-H1650; first compound 1.265 µM,1.14
same,relative viability,ABC-1; first compound 0.04 µM,1.02
same,relative viability,ABC-1; first compound 0.1265 µM,1.24
same,relative viability,ABC-1; first compound 0.4 µM,1.04
same,relative viability,ABC-1; first compound 1.265 µM,0.936
same,relative viability,PC-3 [JPC-3]; first compound 0.04 µM,1
same,relative viability,PC-3 [JPC-3]; first compound 0.1265 µM,1.14
same,relative viability,PC-3 [JPC-3]; first compound 0.4 µM,0.978
same,relative viability,PC-3 [JPC-3]; first compound 1.265 µM,0.61
same,relative viability,NCI-H1563; first compound 0.04 µM,0.924
same,relative viability,NCI-H1563; first compound 0.1265 µM,1.03
same,relative viability,NCI-H1563; first compound 0.4 µM,0.853
same,relative viability,NCI-H1563; first compound 1.265 µM,0.97
same,relative viability,NCI-H520; first compound 0.04 µM,0.687
same,relative viability,NCI-H520; first compound 0.1265 µM,0.923
same,relative viability,NCI-H520; first compound 0.4 µM,0.78
same,relative viability,NCI-H520; first compound 1.265 µM,0.717
same,relative viability,NCI-H2405; first compound 0.04 µM,1.05
same,relative viability,NCI-H2405; first compound 0.1265 µM,1.1
same,relative viability,NCI-H2405; first compound 0.4 µM,1.02
same,relative viability,NCI-H2405; first compound 1.265 µM,0.747
same,relative viability,NCI-H2228; first compound 0.04 µM,0.783
same,relative viability,NCI-H2228; first compound 0.1265 µM,0.915
same,relative viability,NCI-H2228; first compound 0.4 µM,0.871
same,relative viability,NCI-H2228; first compound 1.265 µM,0.576
same,relative viability,NCI-H322M; first compound 0.04 µM,1.02
same,relative viability,NCI-H322M; first compound 0.1265 µM,1.03
same,relative viability,NCI-H322M; first compound 0.4 µM,0.993
same,relative viability,NCI-H322M; first compound 1.265 µM,0.824
same,relative viability,HCC-15; first compound 0.04 µM,1.11
same,relative viability,HCC-15; first compound 0.1265 µM,1.04
same,relative viability,HCC-15; first compound 0.4 µM,0.92
same,relative viability,HCC-15; first compound 1.265 µM,0.678
same,relative viability,NCI-H661; first compound 0.04 µM,1
same,relative viability,NCI-H661; first compound 0.4 µM,0.971
same,relative viability,NCI-H661; first compound 1.265 µM,0.977
same,relative viability,SW 1573; first compound 0.04 µM,0.977
same,relative viability,SW 1573; first compound 0.1265 µM,0.901
same,relative viability,SW 1573; first compound 0.4 µM,0.902
same,relative viability,SW 1573; first compound 1.265 µM,0.791
same,relative viability,EKVX; first compound 0.04 µM,0.826
same,relative viability,EKVX; first compound 0.1265 µM,0.79
same,relative viability,EKVX; first compound 0.4 µM,0.868
same,relative viability,EKVX; first compound 1.265 µM,0.712
same,relative viability,COR-L23; first compound 0.04 µM,1.02
same,relative viability,COR-L23; first compound 0.1265 µM,1.19
same,relative viability,COR-L23; first compound 0.4 µM,0.943
same,relative viability,COR-L23; first compound 1.265 µM,0.636
same,relative viability,NCI-H1734; first compound 0.04 µM,0.859
same,relative viability,NCI-H1734; first compound 0.1265 µM,1.04
same,relative viability,NCI-H1734; first compound 0.4 µM,0.731
same,relative viability,NCI-H1734; first compound 1.265 µM,0.766
same,relative viability,HCC-827; first compound 0.04 µM,0.914
same,relative viability,HCC-827; first compound 0.1265 µM,1.08
same,relative viability,HCC-827; first compound 0.4 µM,0.957
same,relative viability,HCC-827; first compound 1.265 µM,0.543
same,relative viability,PC-14; first compound 0.04 µM,0.943
same,relative viability,PC-14; first compound 0.1265 µM,0.958
same,relative viability,PC-14; first compound 0.4 µM,1.01
same,relative viability,PC-14; first compound 1.265 µM,0.941
same,relative viability,NCI-H1437; first compound 0.04 µM,1.25
same,relative viability,NCI-H1437; first compound 0.1265 µM,1.19
same,relative viability,NCI-H1437; first compound 0.4 µM,1.11
same,relative viability,NCI-H1437; first compound 1.265 µM,0.923
same,relative viability,H3255; first compound 0.04 µM,0.934
same,relative viability,H3255; first compound 0.1265 µM,1.08
same,relative viability,H3255; first compound 0.4 µM,0.888
same,relative viability,H3255; first compound 1.265 µM,0.814
same,relative viability,NCI-H2342; first compound 0.04 µM,1.03
same,relative viability,NCI-H2342; first compound 0.1265 µM,1.11
same,relative viability,NCI-H2342; first compound 0.4 µM,1.18
same,relative viability,NCI-H2342; first compound 1.265 µM,0.991
same,relative viability,LK-2; first compound 0.04 µM,1.33
same,relative viability,LK-2; first compound 0.1265 µM,1.14
same,relative viability,LK-2; first compound 0.4 µM,1.13
same,relative viability,LK-2; first compound 1.265 µM,0.969
same,relative viability,NCI-H1355; first compound 0.04 µM,1.08
same,relative viability,NCI-H1355; first compound 0.1265 µM,0.992
same,relative viability,NCI-H1355; first compound 0.4 µM,0.957
same,relative viability,NCI-H1355; first compound 1.265 µM,0.622
